These results are taken from patent publication US6372792B1, “Method for treating anxiety, anxiety disorders and insomnia” (priority 1996, dated 2002).

Structures are written as SMILES.

Common to all, as to type: in vivo, human
The test system of data set [1] is chronic severe generalized anxiety disorder with marked insomnia and depression. The data set can be described thus: Case History 1: patient treated with gabapentin. The conditions noted are these: initiated at a low dose. As to the method: The patient is a retired patient. […] In their medical history, there is a cervical laminectomy (1988). They report residual pain and weakness in the right arm and right leg and chronic neck pain. They have a history of three months of depression with no treatment (1989) and a history of chronic severe generalized anxiety disorder.
In December 1994, the patient had been taking a benzodiazepine, clonazepam 2.5 mg/day, for the last five years when their anxiety and depression became much worse. Anxiety was associated with marked insomnia and significant situational stressors (financial and marital). […] Patient is now functional for the first time in many years. Improvement continues as of this day. […] Improvement persists.

Data set [2] has as its system obsessive compulsive disorder (OCD), anxiety, paranoid delusions. Kind of data set: Case History 5: patient treated with gabapentin. An excerpt: The patient is a single person who is still studying at University. Their medical history is unremarkable. The patient was first seen by a psychiatrist and followed for obsessive compulsive disorder (OCD) in the United Emirates; the patient tended toward isolativeness. Also, they developed a tic disorder and complained of anxiety.
In February 1994, the patient developed intense paranoid ideation and became more withdrawn. Over the previous two years, the patient had suffered from paranoid delusions and auditory hallucinations. They stopped taking their neuroleptic medication in mid-December while they were a University student. They were admitted as an inpatient in March 1994. […] The patient was discharged with clozapine and lorazepam. In June, the patient was referred for Follow-Up where an anticonvulsant drug, valproic acid was added to potentiate clozapine, but discontinued in August 1994.
In February 1995, gabapentin was added to the patient's treatment. […] Currently, the patient takes clozpine 125 mg BID, […], gabapentin 500 mg HS and procyclidine 5 mg BID.

The subject of data set [3] is fast cycling manic depressive illness with anxiety associated with depression. Kind of data set: Case History 2: patient treated with gabapentin. To be noted: June to December 1992. Here is the method: A person is a retired patient with a family history of bipolar affective illness. The patient has been treated for manic-depressive illness since they experienced their first depressive episode and was hospitalized several times for mania and depression.
[…]), the patient was hospitalized for an episode of acute mania. After that, they were treated with lithium, tryptophan, nicotinamide, clonazepam, Premarin®, Provera® and Overal®. The patient was re-hospitalized for a manic episode […] (1982). They have been treated with various psychotropic drugs, especially: lithium, tryptophan, and clonazepam. Lithium was discontinued in October 1983 until 1985. They were given tryptophan, lecithin and female hormones for control of a severe rapid-cycling bipolar disorder. Fluoxetine, as well as, antiepileptics (carbamazepine and valproic acid) were also added to their treatment.
Due to the patient's fast cycling manic depressive illness, their medication is regularly adjusted. Since 1991 magnesium was added to their regular medication. […] In April 1993, risperidone was initiated and in March 1994 lithium was discontinued. They are currently treated with risperidone, gabapentin 1800 mg QD (initiated in August 1994), clonazepam and ritanserin was recently added to their treatment in an attempt to improve their mood. They also take magnesium and lecithin.

Data set [4] deals with panic attacks and anxiety disorder. The data set can be described thus: Case History 3: patient treated with gabapentin. The conditions noted are these: for adverse effect: human, in vivo. As to the method: A person is a single who is working as a freelance writer. […] They were hospitalized because of severe depression and a suicide attempt by drug overdose. The patient has taken lithium since 1973. They have also had panic attacks since 1978.
In January 1994, the patient was depressed and valproic acid was initiated with lithium and clonazepam. […] Gabapentin 300 mg BID up to 300 mg TID was initiated in their treatment.

For the molecule `CNCCC(Oc1ccc(C(F)(F)F)cc1)c1ccccc1` (stereo not drawn) [Fluoxetine], the “clinical response (anxiety and depression)” value in data set [1] was “made the patient worse”.
`Cc1nc2n(c(=O)c1CCN1CCC(c3noc4cc(F)ccc34)CC1)CCCC2` [risperidone]: the “psychotic symptoms (paranoid delusions, auditory hallucinations)” value in data set [2] (inpatient, March 1994) is listed as “did not improve”.
Turning to `CN[C@H]1CC[C@@H](c2ccc(Cl)c(Cl)c2)c2ccccc21` [sertraline], the “clinical response (anxiety and depression)” value in data set [1] is on record as “made the patient worse”.
Turning to `OC(CCN1CCCC1)(c1ccccc1)C1CCCCC1` (stereo not drawn) [procyclidine], in data set [2] (procyclidine 5 mg BID), the akathisia entry is reported as “they improved with this medication”.
Regarding `CCCC(CCC)C(=O)O` [valproic acid], the adverse effect entry in data set [3] is listed as “the patient was losing hair”; in data set [4], “they were losing their hair”. Moreover, in data set [4] (initiated with lithium and clonazepam, two weeks later), the depression entry is “the patient improved”.
As to `NCC1(CC(=O)O)CCCCC1` [gabapentin, (1-aminomethyl)-1-cyclohexaneacetic acid], the adverse effect result in data set [4] was “the patient complained of sedation”; in data set [2] (during the increase of gabapentin) it was “dizziness during the increase of gabapentin but this subsided”.
